Usually AUC(0-inf) stands for total exposure, with the tail of the curve extrapolated. A low value points to less exposure. A word on the AUC(0-t): it is exposure summed from dosing to a finite time, without extrapolation to infinity. Usually CL/F stands for clearance divided by bioavailability, as obtained after extravascular dosing. One may read the Cmax as the peak of the concentration-time curve. A word on the MRT inf: it is a mean duration of stay, worked out from the concentration-time curve. As a reminder, the MRT last is the average time that molecules of a dose stay in the body. What is called Tmax is the time at which the peak concentration occurs. By Vd/F is commonly meant the apparent distribution volume after extravascular dosing. What is called half-life is how long it takes for the measured level to halve. Lower therefore signals rapid decline. By IC50 is commonly meant the concentration that gives 50% inhibition. Low values mean greater potency in that assay, high ones weaker potency in that assay.

Results on seven molecules are retold here after paper PMC7033572, “Cytochrome P450-Based Drug-Drug Interactions of Vonoprazan In Vitro and In Vivo” (Frontiers in Pharmacology, 2020).

A short description of one data set: in vivo. From the text: The mobile phase comprising acetonitrile (A) and 0.1% formic acid water (B) was set with a 0.40-ml/min flow rate. […] MassLynx 4.1 software (Waters Corp., Milford, MA, USA) was used for data acquisition, and the UPLC-MS/MS chromatogram of blank plasma that was spiked with probe drugs and metabolites is shown below ( Figure 1 ).
Ten specific pathogen-free (SPF) grade Sprague–Dawley rats (male, 220 ± 20 g) were provided by Wenzhou Medical University Laboratory Animal Research Center. This study was carried out in accordance with the principles of the Basel Declaration and recommendations of Wenzhou Medical University Administration Committee of Experimental Animals. The protocol was approved by the Wenzhou Medical University Administration Committee of Experimental Animals (ID Number: wydw2019-650). Ten rats were randomly divided into two groups: the vonoprazan group (n = 5) and control group (n = 5). Both groups were fasted overnight before experiments but were allowed water all the time. The six probe drug mixtures and vonoprazan were dissolved in 0.5% carboxy methyl cellulose sodium (CMC-Na), respectively. The vonoprazan group was administered 5 mg/kg of vonoprazan for 14 days. The control group was administered 0.5% CMC-Na.
Next, the samples were collected into 1.5-ml centrifuge tubes and were immediately centrifuged for 10 min at 4,000 rpm speed. For every 100 µl of rat plasma was added with 200 µl of acetonitrile in 0.5 μg/ml of IS was added, followed by vortex mixing for one minute. […] In vitro DDI detection system, the pH was 7.4 and the component of buffer was consisted of 100 mM potassium phosphate.
The GraphPad (version 7.0; GraphPad Software Inc., San Diego, CA, USA) was applied to calculate IC50 values and plot plasma concentration-time curves. The pharmacokinetic parameters using noncompartmental analysis was calculated by DAS (version 3.2.8; Wenzhou Medical University, China). Statistical comparisons within groups were conducted by SPSS (version 25.0; SPSS Inc., Chicago, IL, USA), using Student's t-test.

Another data set relates to CYP2B6. The data set is described as follows: Reversible inhibition of bupropion metabolism by vonoprazan in rat liver microsomes (probe cocktail, UPLC-MS/MS). Format: in vitro ADME. Particulars: pH 7.4, probe bupropion (20 μM). As to the method: (§1) The pooled rat liver microsomes (RLMs) obtained from eight rats, which were weighed and homogenized with cold […] phosphate-buffered saline (PBS), containing […]. After centrifugation for 15 min at 11,000 rpm, the supernatants were separated and transferred into new tubes for another 15-min centrifugation at 11,000 rpm. Next, ultracentrifugation was performed at […] at 4°C for 1 h., and the microsomal pellets were resuspended with cold […] PBS and stored at −80°C ([Wang et al., 2015]). The protein concentration of RLMs was determined using the Bradford Protein Assay Kit (Thermo Scientific, Waltham, MA, USA).
(§2) Next, vonoprazan was applied as the inhibitor to determine the half maximal inhibitory concentration (IC50). […]. After preincubation in a shaking water bath at 37°C for 5 min, an NADPH-regenerating system was added to initiate the reaction in a final volume of 200 μl. The reaction was performed for 30 min, and was stopped by cooling to −80°C immediately. Next, 20 μl of internal standard (IS) working solution and 200 μl of acetonitrile were added. Centrifugation was performed at 13,000 rpm for 5 min after vortexing for 1 min. The supernatant mixture (2 μl) was injected into the UPLC–MS/MS system for analysis.

A further data set deals with T1, CYP1A2 (Rattus norvegicus, UniProt P04799).
T1 construct: contained 0.5 mg/ml of RLMs; from tissue; host or cells: pooled rat liver microsomes
T1 sequence (P04799 1-513): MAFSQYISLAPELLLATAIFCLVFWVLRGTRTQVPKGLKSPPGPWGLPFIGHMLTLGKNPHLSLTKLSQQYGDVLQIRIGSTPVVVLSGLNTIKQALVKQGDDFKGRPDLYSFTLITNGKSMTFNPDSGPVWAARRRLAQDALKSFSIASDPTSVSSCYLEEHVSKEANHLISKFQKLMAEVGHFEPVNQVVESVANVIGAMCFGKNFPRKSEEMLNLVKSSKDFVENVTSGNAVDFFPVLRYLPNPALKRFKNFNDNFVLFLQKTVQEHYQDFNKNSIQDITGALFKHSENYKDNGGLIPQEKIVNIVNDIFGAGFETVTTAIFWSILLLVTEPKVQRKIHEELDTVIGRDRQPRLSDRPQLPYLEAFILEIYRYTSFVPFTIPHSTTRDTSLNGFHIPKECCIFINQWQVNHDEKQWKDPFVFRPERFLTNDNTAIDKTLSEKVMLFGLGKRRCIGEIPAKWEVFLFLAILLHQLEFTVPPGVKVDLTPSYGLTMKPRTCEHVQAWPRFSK
Nature of the data set: Reversible inhibition of phenacetin metabolism by vonoprazan in rat liver microsomes (probe cocktail, UPLC-MS/MS). The note with it: vonoprazan 1-100 μM, phenacetin 40 μM. Format: in vitro ADME. The method, then: as §1, §2
On the technique in general: Microsomes from liver hold many membrane-bound enzymes, among them those of drug oxidation.

The next data set concerns CYP3A4. The data set is described as follows: Reversible inhibition of midazolam metabolism by vonoprazan in rat liver microsomes (probe cocktail, UPLC-MS/MS). The note with it: pH 7.4, probe midazolam (5 μM), rat liver microsomes 0.5 mg/ml, n = 3. Format: in vitro ADME. The method, then: as §1, §2
Details of data set [1]: method as in Kogame et al., 2017. Particulars: rats; ref Kogame et al., 2017; cited from earlier work.
Another data set has as its system CYP2D6. The data set is described as follows: Reversible inhibition of dextromethorphan metabolism by vonoprazan in rat liver microsomes (probe cocktail, UPLC-MS/MS). It counts as in vitro ADME. Particulars: pH 7.4, probe dextromethorphan (100 μM), rat liver microsomes 0.5 mg/ml, n = 3. The method, then: as §1, §2
The next data set relates to CYP2C9. The data set is described as follows: Reversible inhibition of tolbutamide metabolism by vonoprazan in rat liver microsomes (probe cocktail, UPLC-MS/MS). The note with it: pH 7.4, probe tolbutamide (10 μM), IC50 of vonoprazan on tolbutamide metabolism (CYP2C9), rat liver microsomes 0.5 mg/ml, n = 3. It counts as in vitro ADME. The method, then: as §1, §2
Where [2] appears, read: male, Sprague-Dawley, rat, in vivo.
Where [3] appears, read: male, Sprague-Dawley, rat, in vivo, po, 10 mg/kg.
Where [4] appears, read: male, Sprague-Dawley, rat, in vivo, po.
The mark [5] stands for this setting: rats, Student's t-test, P < 0.05.
Where [6] appears, read: rats, vonoprazan group vs control group.

Entries after “also recorded” stand apart in the source; their conditions may differ.

Take `CC(NC(C)(C)C)C(=O)c1cccc(Cl)c1` (stereo not shown) [Bupropion]: in “in vivo” (setting [2]), the “Decrease of CLz/F by vonoprazan” value was 70.6%, the “Decrease of Vz/F by vonoprazan” value came out at 53.3%, the “Increase of AUC0→t compared with the control group” value (“Increase of AUC0→t” below) came out at 2.17 fold and the “Increase of AUC0→∞ compared with the control group” value (“Increase of AUC0→∞” for short) was found to be 2.30 fold. Moreover, the “Increase of Cmax by addition of vonoprazan” value (from here on “Increase of Cmax”) in the data set “in vivo” (setting [2]) was determined as 2.33 fold. In the data set “in vivo” (setting [3]), this molecule showed a total exposure AUC(0-inf) of 243 ± 107 ng·h/mL, an AUC(0-t) of 242 ± 106 ng·h/mL, a CL/F of 863 mL/min/kg and a maximum concentration (Cmax) of 97.1 ± 55.5 ng/mL. In “in vivo” (setting [3]), the mean residence time MRT inf is 2.78 ± 0.57 h, the MRT last was 2.72 ± 0.51 h, the Tmax was 0.37 ± 0.36 h and the Vd/F was 99.1 ± 53.7 L/kg. Besides, the half-life in the data set “in vivo” (setting [3]) is 1.38 ± 0.25 h.
For `COc1ccc2c(c1)[C@]13CCCC[C@@H]1[C@H](C2)N(C)CC3` [Dextromethorphan], in “in vivo” (setting [4]), the CL/F was 532 mL/min/kg, the Tmax was determined as 0.75 ± 0.77 h, the Vd/F was 125 ± 88.5 L/kg and the half-life was 2.61 ± 1.47 h. Also, the “Difference in pharmacokinetic parameters after vonoprazan administration compared with the control group” value (“Difference in pharmacokinetic parameters” for short) in “in vivo” (setting [5]) was “significant differences”. Further, in the data set “in vivo” (setting [6]), the “Decrease of CLz/F by vonoprazan” value is 61.0%, the “Increase of AUC0→t” value came to 1.52 fold, the “Increase of AUC0→∞” value was found to be 1.50 fold and the “Increase of Cmax” value is 1.87 fold.
In “in vivo” (setting [3]), `Cc1ncc2n1-c1ccc(Cl)cc1C(c1ccccc1F)=NC2` [Midazolam] had a total exposure AUC(0-inf) of 657 ± 198 ng·h/mL, an AUC(0-t) of 625 ± 194 ng·h/mL, an apparent clearance (CL/F) of 282 mL/min/kg and a maximum concentration (Cmax) of 335 ± 191 ng/mL. In “in vivo” (setting [3]), the mean residence time (MRT inf) was 2.34 ± 1.12 h, the MRT last was 1.9 ± 0.6 h, the time to peak (Tmax) was determined as 0.18 ± 0.09 h and the Vd/F was 39.4 ± 20.4 L/kg. The half-life in “in vivo” (setting [3]) was 1.85 ± 1.18 h. Besides, in the data set “in vivo” (setting [5]), the “Difference in pharmacokinetic parameters” value is listed as “significant differences”. In the data set “in vivo” (rats, Student's t-test, P < 0.05, listed as midazolam), the “Difference in pharmacokinetic parameters” value is given as “significant”. Moreover, in “in vivo” (setting [6]), the “Decrease of CLz/F by vonoprazan” value came out at 54.7%, the “Increase of AUC0→t” value stood at 1.17 fold, the “Increase of AUC0→∞” value was 1.25 fold and the “Increase of Tmax by addition of vonoprazan” value came to 1.50 fold.
With `CCOc1ccc(NC(C)=O)cc1` [Phenacetin], in the data set “in vivo” (setting [3]), the AUC(0-inf) worked out at 5040 ng·h/mL, the AUC(0-t) worked out at 5040 ng·h/mL, the apparent clearance (CL/F) is 37.5 mL/min/kg and the concentration peaked (Cmax) at 3870 ng/mL. Also, in the data set “in vivo” (setting [3]), the MRT inf worked out at 1.13 ± 0.21 h, the mean residence time MRT last was 1.12 ± 0.2 h, the Tmax came to 0.3 ± 0.11 h and the Vd/F was found to be 1.97 ± 0.81 L/kg. Further, the “Difference in pharmacokinetic parameters” value in “in vivo” (rat, in vivo) is “not significantly different”.
Take `CCCCNC(=O)NS(=O)(=O)c1ccc(C)cc1` [Tolbutamide]: in “in vivo” (setting [2]), the “Increase of AUC0→t” value was determined as 0.86 fold, the “Increase of AUC0→∞” value was 0.83 fold and the “Increase of Cmax” value is 0.67 fold. For the same molecule, in the data set “in vivo” (setting [4]), the CL/F was 0.167 mL/min/kg, the time to peak (Tmax) was 3 ± 1 h, the Vd/F came to 0.03 ± 0.01 L/kg and the half-life is 4.99 ± 1.56 h.
For `CCCCNC(=O)NS(=O)(=O)c1ccc(C)cc1` [Vonoprazan + tolbutamide], in the data set “in vivo” (rat, in vivo, po), the CLz/F worked out at 0.033 ± 0.017 mL/min/kg, the Tmax stood at 3.60 ± 1.34 h, the Vz/F came out at 0.0140 ± 0.0020 L/kg and the t1/2z is given as 4.83 ± 1.27 h.
On to `CNCc1cc(-c2ccccc2F)n(S(=O)(=O)c2cccnc2)c1` [vonoprazan, Vonoprazan], for which the IC50 at 30 min in the data set with CYP2B6 came to 3.68 µM; with CYP3A4, […]; in the data set on CYP2D6, 3.62 µM; in the data set with CYP2C9, 18.3 µM. Further, the “Inhibition of phenacetin metabolism (CYP1A2) by vonoprazan” value on CYP1A2 was “no inhibition; also recorded: no effect”. Moreover, the “Reference maximum plasma concentration level” value in data set [1] was […].
